What was measured:
human SOD1 (hSOD1) mRNA = assay: Human SOD1 mRNA in spinal cord of human SOD1 (G93A) transgenic mice (PCR); type: in vivo, mouse; conditions: 60 mg/kg/day oral, 5 days a week for 4 weeks, vs solvent control; relative to β-actin (FIG. 4)
Method: (§1) To 8-week-old human SOD1 (G93A) transgenic mice (The Jackson Laboratory) were orally administered sorafenib (60 mg/kg/day) dissolved in 95% ethanol and Cremophol EL or solvent alone as a control, each to 3 mice, 5 days a week for 4 weeks. After administration, the spinal cord was removed. Total RNA was extracted and human and mouse SOD1 mRNA amounts were measured by PCR.

mouse SOD1 (mSOD1) mRNA = assay: Mouse SOD1 mRNA in spinal cord of human SOD1 (G93A) transgenic mice (PCR); type: in vivo; conditions: 60 mg/kg/day oral, 5 days a week for 4 weeks, vs solvent control; relative to β-actin (FIG. 4)
Method: as §1

SOD1 = assay: Western blotting of intracellular SOD1 in iPS cell-derived astrocytes; type: cell-based, human; conditions: astrocytes from ALS patient iPS cells; 1 μM, 3 μM, 10 μM and 30 μM; 48 hours; β-actin internal standard (FIG. 3D)
Method: A 4-mm skin biopsy was cultured for 3 weeks, and the resulting cells in culture were used as the fibroblasts derived from an ALS patient.
Human cDNAs for KLF4, Sox2, Oct3/4 and c-Myc were transferred to the above-described fibroblasts using a retrovirus, as described by Takahashi K et al. in Cell 131(5), 861, 2007. On day 6 after the gene transfer, the fibroblasts were transferred onto SNL feeder cells. The following day, the medium was replaced with a primate ES cell culture broth supplemented with 4 ng/ml of bFGF (Wako). The medium was exchanged every two days; 30 days after the gene transfer, colonies were picked up.
Neurospheres were formed by a slightly modified version of the method described by Wada T et al. in PLoS ONE 4(8), e6722, 2009. […]
The iPS cell-derived astrocytes were seeded to a 6-well plate at a density of 250,000 cells/well. […] After the incubation, the amount expressed was detected by ECL (Enhanced ChemiLuminescence) using an HRP-linked anti-rabbit IgG antibody (1:5000; GE healthcare) and an HRP-linked anti-mouse IgG antibody (1:5000; GE healthcare).

CNC(=O)c1cc(Oc2ccc(NC(=O)Nc3ccc(Cl)c(C(F)(F)F)c3)cc2)ccn1 [sorafenib]
human SOD1 mRNA amount in spinal cord (human SOD1 (hSOD1) mRNA): significantly decreased
mouse SOD1 mRNA amount in spinal cord (mouse SOD1 (mSOD1) mRNA): significantly decreased
expression of SOD1 (western blotting) (SOD1): a reduction in the expression of SOD1 was observed
